Reference: PubChem BioAssay AID1918939 (Molecular Pharmacology Branch, DTP, NCI, 2023)

Test system: 653999-131-R-J2-PDC complex spheroid viability
Assay: Anticancer human tumor 653999-131-R-J2-PDC patient-derived lung adenocarcinoma cell line growth inhibition
Conditions: for IC50: curve of first compound; for viability, T/C: stronger effect = lower value
Procedure, shortened: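 Multicellular complex spheroids of tumor cells with human endothelial cells (HUVEC) and mesenchymal stem cells; the LSD1 inhibitor iadademstat was combined with standard-of-care or investigational agents. Top concentration at or near clinical Cmax, half-log dilutions; final DMSO ≤0.25%.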

[1] = second compound 0.1 µM, first compound 0.000949 µM
[2] = second compound 0.1 µM, first compound 0.003 µM
[3] = second compound 0.1 µM, first compound 0.00949 µM
[4] = second compound 0.1 µM, first compound 0.03 µM
[5] = second compound 0.1 µM, first compound 0.0949 µM
[6] = second compound 0.1 µM, first compound 0.3 µM
[7] = second compound 0.316 µM, first compound 0.000949 µM
[8] = second compound 0.316 µM, first compound 0.003 µM
[9] = second compound 0.316 µM, first compound 0.00949 µM
[10] = second compound 0.316 µM, first compound 0.03 µM
[11] = second compound 0.316 µM, first compound 0.0949 µM
[12] = second compound 0.316 µM, first compound 0.3 µM
[13] = second compound 1 µM, first compound 0.000949 µM
[14] = second compound 1 µM, first compound 0.003 µM
[15] = second compound 1 µM, first compound 0.00949 µM
[16] = second compound 1 µM, first compound 0.03 µM
[17] = second compound 1 µM, first compound 0.0949 µM
[18] = second compound 1 µM, first compound 0.3 µM
[19] = second compound 3.16 µM, first compound 0.000949 µM
[20] = second compound 3.16 µM, first compound 0.003 µM
[21] = second compound 3.16 µM, first compound 0.00949 µM
[22] = second compound 3.16 µM, first compound 0.03 µM
[23] = second compound 3.16 µM, first compound 0.0949 µM
[24] = second compound 3.16 µM, first compound 0.3 µM
[25] = second compound 10 µM, first compound 0.000949 µM
[26] = second compound 10 µM, first compound 0.003 µM
[27] = second compound 10 µM, first compound 0.00949 µM
[28] = second compound 10 µM, first compound 0.03 µM
[29] = second compound 10 µM, first compound 0.0949 µM
[30] = second compound 10 µM, first compound 0.3 µM
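Also: spheroids exposed to agents for seven days before readout.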

**Q.** Which results are given for `CCc1c2c(nc3ccc(O)cc13)-c1cc3c(c(=O)n1C2)COC(=O)[C@]3(O)CC` + NC1CC1c1ccc(-c2cccc(O)c2)cc1?
**A.** IC50 (second compound 0.1 µM): < 0.949 nM; IC50 (second compound 0.316 µM): < 0.949 nM; IC50 (second compound 1 µM): < 0.949 nM; IC50 (second compound 3.16 µM): < 0.949 nM; IC50 (second compound 10 µM): < 0.949 nM; viability, T/C [1]: 27.2%; viability, T/C [2]: 18%; viability, T/C [3]: 11.7%; viability, T/C [4]: 5.92%; viability, T/C [5]: 6.24%; viability, T/C [6]: 9.54%; viability, T/C [7]: 27.7%; viability, T/C [8]: 21%; viability, T/C [9]: 11.2%; viability, T/C [10]: 5.65%; viability, T/C [11]: 6.29%; viability, T/C [12]: 9.28%; viability, T/C [13]: 25.6%; viability, T/C [14]: 19.9%; viability, T/C [15]: 10.6%; viability, T/C [16]: 5.85%; viability, T/C [17]: 6.63%; viability, T/C [18]: 10.5%; viability, T/C [19]: 21.4%; viability, T/C [20]: 17.2%; viability, T/C [21]: 10.3%; viability, T/C [22]: 5.97%; viability, T/C [23]: 7.51%; viability, T/C [24]: 9.23%; viability, T/C [25]: 23.3%; viability, T/C [26]: 13.5%; viability, T/C [27]: 12.3%; viability, T/C [28]: 6.19%; viability, T/C [29]: 4.83%; viability, T/C [30]: 9.59%

**Q.** `Nc1ccccc1NC(=O)c1ccc(CNC(=O)OCc2cccnc2)cc1` + NC1CC1c1ccc(-c2cccc(O)c2)cc1 was tested. Which IC50 (second compound 0.1 µM) did it give?
**A.** 352 nM

**Q.** And the IC50 (second compound 0.316 µM)?
**A.** 245 nM

**Q.** And the IC50 (second compound 1 µM)?
**A.** 293 nM

**Q.** And the IC50 (second compound 3.16 µM)?
**A.** 213 nM

**Q.** What about the IC50 (second compound 10 µM) of the same compound?
**A.** 177 nM

**Q.** What about the viability, T/C [3] of the same compound?
**A.** 89%

**Q.** What about the viability, T/C [4] of the same compound?
**A.** 101%

**Q.** And the viability, T/C [5]?
**A.** 81.5%

**Q.** And the viability, T/C [6]?
**A.** 52.9%

**Q.** What about the viability, T/C (second compound 0.1 µM, first compound 0.949 µM) of the same compound?
**A.** 22.6%

**Q.** And the viability, T/C (second compound 0.1 µM, first compound 3 µM)?
**A.** 1.35%

**Q.** And the viability, T/C [9]?
**A.** 93%

**Q.** What about the viability, T/C [10] of the same compound?
**A.** 85.8%

**Q.** What about the viability, T/C [11] of the same compound?
**A.** 64.3%

**Q.** What about the viability, T/C [12] of the same compound?
**A.** 49.5%

**Q.** What about the viability, T/C (second compound 0.316 µM, first compound 0.949 µM) of the same compound?
**A.** 20.4%

**Q.** And the viability, T/C (second compound 0.316 µM, first compound 3 µM)?
**A.** 1.41%

**Q.** What about the viability, T/C [15] of the same compound?
**A.** 81.2%

**Q.** And the viability, T/C [16]?
**A.** 68.5%

**Q.** And the viability, T/C [17]?
**A.** 77.9%

**Q.** And the viability, T/C [18]?
**A.** 48%

**Q.** And the viability, T/C (second compound 1 µM, first compound 0.949 µM)?
**A.** 13.1%

**Q.** What about the viability, T/C (second compound 1 µM, first compound 3 µM) of the same compound?
**A.** 0.97%

**Q.** What about the viability, T/C [21] of the same compound?
**A.** 84.6%

**Q.** And the viability, T/C [22]?
**A.** 74.4%

**Q.** And the viability, T/C [23]?
**A.** 69.4%

**Q.** And the viability, T/C [24]?
**A.** 42.1%

**Q.** And the viability, T/C (second compound 3.16 µM, first compound 0.949 µM)?
**A.** 15.8%

**Q.** What about the viability, T/C (second compound 3.16 µM, first compound 3 µM) of the same compound?
**A.** 1.74%

**Q.** And the viability, T/C [27]?
**A.** 76.1%

**Q.** And the viability, T/C [28]?
**A.** 82.2%

**Q.** And the viability, T/C [29]?
**A.** 57.1%

**Q.** And the viability, T/C [30]?
**A.** 42.3%

**Q.** What about the viability, T/C (second compound 10 µM, first compound 0.949 µM) of the same compound?
**A.** 13.3%

**Q.** What about the viability, T/C (second compound 10 µM, first compound 3 µM) of the same compound?
**A.** 0.95%

**Q.** Which IC50 (second compound 0.1 µM) does the source give for `Nc1ccn(C2OC(CO)C(O)C2(F)F)c(=O)n1` (stereo not given) + NC1CC1c1ccc(-c2cccc(O)c2)cc1 here?
**A.** 133 nM

**Q.** What about the IC50 (second compound 0.316 µM) of the same compound?
**A.** 37.9 nM

**Q.** What about the IC50 (second compound 1 µM) of the same compound?
**A.** 24.9 nM

**Q.** What about the IC50 (second compound 3.16 µM) of the same compound?
**A.** 68.3 nM

**Q.** And the IC50 (second compound 10 µM)?
**A.** > 300 nM

**Q.** And the viability, T/C [1]?
**A.** 105%

**Q.** And the viability, T/C [2]?
**A.** 92.4%

**Q.** And the viability, T/C [3]?
**A.** 67.2%

**Q.** And the viability, T/C [4]?
**A.** 61.3%

**Q.** What about the viability, T/C [5] of the same compound?
**A.** 43.6%

**Q.** And the viability, T/C [6]?
**A.** 52.2%

**Q.** What about the viability, T/C [7] of the same compound?
**A.** 82.1%

**Q.** What about the viability, T/C [8] of the same compound?
**A.** 77.2%

**Q.** And the viability, T/C [9]?
**A.** 75.6%

**Q.** What about the viability, T/C [10] of the same compound?
**A.** 51.2%

**Q.** What about the viability, T/C [11] of the same compound?
**A.** 43.5%

**Q.** And the viability, T/C [12]?
**A.** 47%

**Q.** And the viability, T/C [13]?
**A.** 75.1%

**Q.** What about the viability, T/C [14] of the same compound?
**A.** 80.9%

**Q.** What about the viability, T/C [15] of the same compound?
**A.** 64.7%

**Q.** What about the viability, T/C [16] of the same compound?
**A.** 48.6%

**Q.** And the viability, T/C [17]?
**A.** 45.2%

**Q.** What about the viability, T/C [18] of the same compound?
**A.** 44.9%

**Q.** And the viability, T/C [19]?
**A.** 83.4%

**Q.** And the viability, T/C [20]?
**A.** 74.1%

**Q.** And the viability, T/C [21]?
**A.** 63.4%

**Q.** What about the viability, T/C [22] of the same compound?
**A.** 57.4%

**Q.** And the viability, T/C [23]?
**A.** 47.3%

**Q.** What about the viability, T/C [24] of the same compound?
**A.** 39.7%

**Q.** And the viability, T/C [25]?
**A.** 76%

**Q.** What about the viability, T/C [26] of the same compound?
**A.** 70.8%

**Q.** And the viability, T/C [27]?
**A.** 68.9%

**Q.** What about the viability, T/C [28] of the same compound?
**A.** 53.1%

**Q.** What about the viability, T/C [29] of the same compound?
**A.** 55.4%

**Q.** What about the viability, T/C [30] of the same compound?
**A.** 51.5%

**Q.** Which results are given for `O=C(c1cc(Cc2n[nH]c(=O)c3ccccc23)ccc1F)N1CCN(C(=O)C2CC2)CC1` + NC1CC1c1ccc(-c2cccc(O)c2)cc1?
**A.** IC50 (second compound 0.1 µM): > 10000 nM; IC50 (second compound 0.316 µM): > 10000 nM; IC50 (second compound 1 µM): > 10000 nM; IC50 (second compound 3.16 µM): > 10000 nM; IC50 (second compound 10 µM): > 10000 nM; viability, T/C (second compound 0.1 µM, first compound 0.0316 µM): 102%; viability, T/C (second compound 0.1 µM, first compound 0.1 µM): 106%; viability, T/C (second compound 0.1 µM, first compound 0.316 µM): 95.1%; viability, T/C (second compound 0.1 µM, first compound 1 µM): 89.1%; viability, T/C (second compound 0.1 µM, first compound 3.16 µM): 76.5%; viability, T/C (second compound 0.1 µM, first compound 10 µM): 66.1%; viability, T/C (second compound 0.316 µM, first compound 0.0316 µM): 93.8%; viability, T/C (second compound 0.316 µM, first compound 0.1 µM): 90.7%; viability, T/C (second compound 0.316 µM, first compound 0.316 µM): 82.6%; viability, T/C (second compound 0.316 µM, first compound 1 µM): 72%; viability, T/C (second compound 0.316 µM, first compound 3.16 µM): 59.9%; viability, T/C (second compound 0.316 µM, first compound 10 µM): 65.4%; viability, T/C (second compound 1 µM, first compound 0.0316 µM): 86.1%; viability, T/C (second compound 1 µM, first compound 0.1 µM): 80.4%; viability, T/C (second compound 1 µM, first compound 0.316 µM): 90.8%; viability, T/C (second compound 1 µM, first compound 1 µM): 64.3%; viability, T/C (second compound 1 µM, first compound 3.16 µM): 75.3%; viability, T/C (second compound 1 µM, first compound 10 µM): 63.5%; viability, T/C (second compound 3.16 µM, first compound 0.0316 µM): 78.5%; viability, T/C (second compound 3.16 µM, first compound 0.1 µM): 87.2%; viability, T/C (second compound 3.16 µM, first compound 0.316 µM): 87%; viability, T/C (second compound 3.16 µM, first compound 1 µM): 82.5%; viability, T/C (second compound 3.16 µM, first compound 3.16 µM): 71.4%; viability, T/C (second compound 3.16 µM, first compound 10 µM): 64.6%; viability, T/C (second compound 10 µM, first compound 0.0316 µM): 92.8%; viability, T/C (second compound 10 µM, first compound 0.1 µM): 79.7%; viability, T/C (second compound 10 µM, first compound 0.316 µM): 87.9%; viability, T/C (second compound 10 µM, first compound 1 µM): 78.3%; viability, T/C (second compound 10 µM, first compound 3.16 µM): 71.7%; viability, T/C (second compound 10 µM, first compound 10 µM): 58.5%
